# Entries after “also recorded” stand apart in the source; their conditions may differ.
# Tests used:
# FVB/N mice = assay: Predator (cat) odor stress paradigm, elevated plus maze (EPM) and acoustic startle response (ASR) one week post-exposure; assay type: in vivo, mouse
# Procedure: Animals: FVB/N or adult TLR9 −/− mice and strain-matched wild type C57/B6J mice were housed four per cage, with constant temperature (21±1° C.), a 12 hour light/dark cycle, free access to food and water and habituation to the housing conditions by daily handling. Experiments were performed 1 week after arrival in the animal facility.
# Behavioral paradigms: Mice were placed for 10 minutes on well-soiled cat litter (in use by the cat for 2 days, sifted for stools). One week after exposure, animals were tested according to Cohen et al. (2005) Biol Psychiatry 58, 640 in the elevated plus maze (EPM) and the acoustic startle response (ASR) paradigms. The EPM is a plus-shaped platform with two opposing open arms and two opposing closed arms (surrounded by 14-cm high opaque walls on three sides). Mice were placed on the central platform and were allowed to explore the maze for 5 min. […]
# Startle response was measured using two ventilated startle chambers (SR-LAB System, San Diego Instruments, San Diego, Calif.). Each Plexiglas cylinder rests on a platform inside a sound-attenuated, ventilated chamber. Startle sessions started with a 5-minute acclimatization period to a background of 68 dB white noise, followed by 30 acoustic startle stimuli (110 dB white noise of 40 ms duration with 30 s or 45 s inter-trial interval). Startle amplitude was averaged over all 30 trials, and percent habituation was calculated as the percent difference between the response to the first block of stimuli and to the last one.
# Animals were randomly divided into 5 groups. The following daily treatments initiated immediately before stressor exposure and for a total of four consecutive days: saline, 50 μg/kg ODN1826, 50 μg/kg mEN101, 50 μg/kg μg mEN101 and 500 μg/kg μg ODN2088. Oligonucleotides were delivered in 300 μl 0.9% NaCl solution (Teva, Israel). A control group was exposed to fresh, unused litter. Animals were sacrificed and brains dissected on day 1 2 h after the stressor, on day 4 2 h after the last injection, or on day 7 2 h after the behavioral tests, as noted.
# To challenge the hypothesis that TLR9 activation modulates psychological stress reactions, mice were exposed to the predator odor stress paradigm (Cohen, H., Zohar, J., Matar, M. A., Kaplan, Z. & Geva, A. B. (2005) Biol Psychiatry 58, 640-50) and treated them with TLR9 activating or blocking oligonucleotides and with a known stress-suppressing oligonucleotide, mEN101. One week post-exposure, treated mice were tested for avoidance behavior and hyper-arousal in the elevated plus maze (EPM) and acoustic startle response (ASR) tests, respectively (FIG. 1B). […] They also presented greater startle amplitude (F5,103=10.75, p<0.0001; p<0.0001) and decreased startle habituation ([…]; p<0.0001) than control mice (FIG. 1C). The traumatic experience conferred varied impacts in the exposed mice, ranging from drastically maladaptive behavior to generally unmodified response patterns.
# RAW264.7 cells = assay: LPS-induced NO production with or without corticosterone after ODN1826 pre-incubation; assay type: cell-based, mouse; settings: 24 hours before LPS 1 μg/ml with corticosterone
# Procedure: Determination of nitric oxygen (NO) production: The nitrite concentration in the medium was measured as an indicator of NO production according to the Griess reaction. 1×10^5 RAW264.7 cells were grown in 0.5 ml medium in 48-wells plate until 80% confluence was obtained. […] (1% sulfanilamide, 0.1% naphthylethylenediamine dihydrochloride, 5% H3PO4). Absorbance was read at 540 nm after 10 minutes using SPECTRAFluor Plus spectrophotometer (TECAN, UK).
# In order to study the functional effects of TLR9 activation on GR signaling, RAW264.7 cells were incubated with varying concentrations of ODN1826 (SEQ ID NO: 2) for 24 hours and the medium was replaced with one containing LPS (1 μg/ml) with or without […] corticosterone (CORT) for an additional 24 hours. As expected, CORT blocked lipopolysaccharide (LPS)-induced NO production.
substance,measurement,setting,value
"5′-TCCATGACGTTCCTGACGTT-3′ [ODN1826, reference compound]",anxiety index (AI),"FVB/N mice; 50 μg/kg (high dose for ODN1826), compared to saline injected stressed mice",significantly increased AI
same,"stress-induced anxiety scores (EPM score, startle response, habituation to startle)","FVB/N mice; 50 μg/kg i.p. daily for 4 consecutive days, tested day 7, compared to saline-treated stressed mice",increased stress-induced anxiety scores; also recorded: slightly anxiogenic behavior
same,effect on LPS-induced NO production / cell activation,RAW264.7 cells; higher doses (10-100 nM),increased cell activation
same,effect on CORT inhibition of LPS-induced NO production,RAW264.7 cells; low doses (0.01-1 nM),potentiated CORT anti-inflammatory effect
